Reference: patent publication US11332438B2, “Creatine prodrugs, compositions and methods of use thereof” (Ultragenyx Pharmaceutical Inc., priority 2017, dated 2022)
Entries after “also recorded” stand apart in the source; their conditions may differ.

Key:
[1] = Chemical stability in phosphate buffered saline (PBS); type: physicochemical; settings: Table 2A, 50 μM prodrug
In short: (§1)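 Incubations used 50 μM compound at 37 °C in phosphate buffered saline, fasted simulated intestinal fluid without pancreatin, or fasted simulated gastric fluid without pepsin.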

[2] = Chemical stability in simulated intestinal fluid (SIF) without pancreatin; type: physicochemical; settings: Table 2A, 50 μM prodrug
Experimental: Chemical stability of creatine prodrugs in phosphate buffered saline (PBS), simulated intestinal fluid (SIF) without pancreatin, simulated gastric fluid (SGF) without pepsin were determined by LC-UV, LC-CAD, LC-UV-CAD or LC-MS/MS as appropriate. Creatine prodrugs of the present disclosure (50 μM) were incubated at 37° C. according to described protocols and prodrug levels were compared between t=0, t=15, t=60, and t=120 mins by peak area ratio to determine the percentage remained at t=120 mins (2 h).
Protocol for PBS, SIF and SGF stability for screening:
Prodrugs (50 μM) were incubated in PBS, FaSSIF (Biorelevant) or FaSSGF (Biorelevant) at 37° C.

[3] = Chemical stability in simulated gastric fluid (SGF) without pepsin; type: physicochemical; settings: Table 2A, 50 μM prodrug
In short: as §1

[4] = target: T1, recombinant human FAAH enzyme (rFAAH) (Homo sapiens, UniProt O00519); assay: Direct prodrug cleavage with recombinant human FAAH enzyme (rFAAH): d3-Cr release and d3-Crn cyclization; type: biochemical; settings: 200 μM prodrug, 3 h, % of nominal input; for Prodrug Cleavage rFAAH net d3-Cr release: negative control subtracted
T1 sequence (O00519 1-579): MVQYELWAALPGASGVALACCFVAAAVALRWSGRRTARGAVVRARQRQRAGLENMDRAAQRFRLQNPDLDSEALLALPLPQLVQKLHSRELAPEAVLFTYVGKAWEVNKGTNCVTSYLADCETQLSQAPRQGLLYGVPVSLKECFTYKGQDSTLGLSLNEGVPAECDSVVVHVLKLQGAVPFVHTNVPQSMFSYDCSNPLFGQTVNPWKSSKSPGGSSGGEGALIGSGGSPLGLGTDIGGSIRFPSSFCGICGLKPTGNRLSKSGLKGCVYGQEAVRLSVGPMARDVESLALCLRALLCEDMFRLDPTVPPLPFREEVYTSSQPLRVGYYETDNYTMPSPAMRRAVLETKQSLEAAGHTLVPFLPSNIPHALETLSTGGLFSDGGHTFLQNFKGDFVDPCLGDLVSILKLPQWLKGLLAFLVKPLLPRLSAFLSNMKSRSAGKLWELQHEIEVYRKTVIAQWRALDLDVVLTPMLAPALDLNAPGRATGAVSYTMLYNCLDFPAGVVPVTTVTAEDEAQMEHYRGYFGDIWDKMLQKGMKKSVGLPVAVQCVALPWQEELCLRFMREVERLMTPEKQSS
Experimental: (§2) For assessment of the ability of prodrugs to release creatine, and to release creatine preferentially to unwanted cyclization to creatinine, d3-labeled (deuterium labeled methyl group) prodrugs are incubated with brain homogenates (e.g., mouse, human) specially prepared to preserve FAAH activity or with rFAAH for direct cleavage study. The use of d3-labelled prodrugs is essential in order to distinguish prodrug-derived creatine (d3-creatine) from high concentrations of endogenous (non-labeled) creatine. […] Prodrugs are tested at final concentrations of 20 μM and 200 μM. Approximately 3-4 mg of homogenate is used for each reaction. Co-factor (NADPH) is included at a final concentration of 1 mM. FAAH activity is confirmed by conversion of 7-amino-4-methyl Coumarin-Arachidonamide to 7-amino-4-methyl Coumarin by fluorescent assay. Negative controls include incubations without brain homogenate/rFAAH (but with NADPH) or 65° C. heat inactivated brain homogenate/rFAAH to assess non-enzymatic prodrug cleavage under the conditions of the assay and FAAH inhibitor […] at the concentration of 1 μM. Prodrug incubations are prepared by addition of 8 μL of prodrug stock solution (500 or 5000 μM in DMSO or DMSO/methanol) to assay buffered, followed by addition of brain homogenate/rFAAH. […] The samples are centrifuged at 15890×g for 10 minutes at 4° C., followed by transfer of the supernatants for storage at −20° C. pending LC-MS/MS analysis. Sample supernatants are analyzed by LC-MS/MS for determination of d3-prodrug, d3-creatine and d3-creatinine levels.
(§3) Deuterated creatine prodrugs were tested in 3 different in vitro assays to assess d3-creatine (d3-Cr) release and cyclization to form d3-creatinine (d3-Crn). These assays were 1) direct cleavage with recombinant human FAAH enzyme (rFAAH), 2) cleavage in mouse brain homogenates (MBH), and 3) human brain homogenates (HBH).
(§4) Creatine prodrug cleavage efficiency was determined by percentage of net d3-Cr release in μM (positive reaction subtracted from negative control of no brain homogenate/rFAAH or inactivated brain homogenate/rFAAH) over nominal input concentration of 200 μM prodrug at 3 h. Propensity for creatinine cyclization was determined by percentage of d3-Crn generated in μM in positive reaction over nominal input concentration of 200 μM prodrug at 3 h.

[5] = Prodrug cleavage in human brain homogenates (HBH): d3-Cr release and d3-Crn cyclization; type: in vitro ADME; settings: for Prodrug Cleavage Human BH d3-Crn release / Prodrug Cleavage Human BH net d3-Cr release: 200 μM prodrug, 3 h, % of nominal input; for Prodrug Cleavage Human BH net d3-Cr release: negative control subtracted
Experimental: as §2, §3, §4

ARPE-19 cells = assay: Creatine prodrug uptake and d3-creatine release in ARPE-19 cells (Table 4A); type: cell-based, human; settings: 50 μM, 6 h, cytosol fraction, corrected for total protein
Experimental: At the end of the incubation, supernatant will be collected from each well to assess prodrug recovery. Cells are then washed 3× with PBS. Plates, prodrugs in supernatant, prodrugs in serum-free medium are stored at −80° C. until harvest (within 5 days). On the day of extraction, 130 uL of lysis buffer (10 mM Tris pH 7.4) with EDTA-free protease inhibitors is added to each well and cells are removed using a cell scraper. Lysates are further homogenized using a handheld pestle and then centrifuged at 16,000 g, […], for 10 minutes to collect cytosol fraction. Pellets will be stored at −80° C. until further analysis. A 4× volume of stop solution (80% ACN/20% water) will be added to the cytosol fraction, supernatant and medium. Samples will be centrifuged at 15,890 g (13,000 rpm) at 4° C. for 10 mins. Supernatant will be collected and stored at −80° C. within 5 days prior to LC-MS/MS analysis. Dosing solutions for each prodrug (10 μM) will be assayed to verify concentration. Cells alone with vehicle will serve as controls to assess background signal for LC-MS/MS. Two independent runs of experiment will be conducted.
Nine fatty acid amide creatine prodrugs were tested in human ARPE-19 cells to assess prodrug uptake and d3-Cr release inside the cells. 50 μM of prodrug was incubated in culture medium with the cells and the cells were harvested at 6 h. Quantitation of prodrugs, d3-Cr (d3-creatine) and d3-Cm (d3-creatinine) in the cytosol fraction was corrected for total protein concentration.

[6] = Plasma stability, human plasma; type: in vitro ADME; settings: Table 2A, 37 °C, read-out: Plasma Stability Human t1/2
In short: (§5)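 Test article, 1 µM final (from 10% DMSO/water), incubated at 37 °C in plasma adjusted to pH 7.4 if needed; samples at 0, 2, 5, 15 and 30 min quenched with ice-cold 80% acetonitrile. Remaining compound by LC-MS/MS; half-life in minutes calculated.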

[7] = Plasma stability, mouse plasma; type: in vitro ADME; settings: Table 2A, 37 °C, read-out: Plasma Stability Mouse t1/2
In short: as §5

[8] = Liver microsome stability, human; type: in vitro ADME; settings: liver microsomes, pH 7.4, Table 2A, read-out: Microsome Stability Human t1/2
In short: (§6)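 Test compound incubated with mouse or human liver microsomes and NADPH in 0.1 M potassium phosphate, 1.0 mM EDTA, pH 7.4, with a 60-min no-NADPH control. Samples quenched with ACN containing internal standard at 0, 5, 10, 20, 30 and 60 min, then analysed by LC/MS.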

[9] = Liver microsome stability, mouse; type: in vitro ADME; settings: liver microsomes, pH 7.4, Table 2A, read-out: Microsome Stability Mouse t1/2
In short: as §6

[10] = d3-Creatine and d3-creatinine concentration in CrT KO mice brain after IV bolus dose (FIGS. 3 and 4, Table 6); type: in vivo; settings: CrT KO mice brain, 8 h after IV bolus dose
Experimental: The brain concentrations of d3-creatine and d3-creatinine was measured in CrT KO mice following 10 mg/kg single dose IV bolus dose of compound 14 and 15 (FIGS. 3 and 4). As shown by FIG. 3, brain d3-creatine concentration was higher following administration of compound 15 compared to compound 14. […] Without bound to any theory, the macrocyclic compound 15 prodrug reduces d3-creatine cyclization to d3-creatinine when compared to linear compound 14 prodrug.
The concentration of d3-creatine in CrT KO mice brain were also measured for other compounds disclosed in the present application as shown in Table 6. The concentrations of d3-creatine, d3-creatinine and creatine prodrugs are measured by LC-MS/MS. The brain sample is homogenized with 4× (weight to volume) of KPI 100 mM buffer containing anti-proteases and anti-phosphatases (if needed). 50 μl of brain homogenate is then de-proteinized using 4× volume/volume of a solution containing 80% acetonitrile and 20% water with bucetin, d5-Cr (internal standard). The plate is then spun at 4000 rpm, 10 minutes, 4° C. and samples are transferred to a new plate for bioanalysis. Each analyte in each sample was quantitated against a curve in matching biomatrix using an authentic standard.

[11] = In vivo IV dosing in CrT KO mice: prodrug, d3-Cr and d3-Crn in brain (Table 5)
Experimental: A creatine prodrug is administered as an intravenous bolus injection to groups of three to six adult male CD1 mice at an appropriate creatine prodrug dose equivalent per kg body weight. Animals are conscious at the time of the experiment. Blood samples (0.3 mL) are obtained via a jugular vein cannula at intervals over 8 hours following IV dosing. Blood is processed into plasma, then the plasmais immediately frozen at −80° C. until analyzed by LC-MS/MS. Samples may also be taken form the CSF or other appropriate biological fluid. Brains were collected and flash frozen immediately in liquid nitrogen. Brains were homogenized in 100 mM KPI buffer with a cocktail of anti-proteases on the same day as the sample preparation required for LC-MS/MS analysis.
Several prodrugs with either free COOH group and ester linkage and macrocycles were selected for IV dosing in animal study to assess PK and d3-Cr release in brain in vivo. Prodrugs were IV dosed in CrT KO mice at 10, 15, or 25 mg/kg in animal studies. Mouse brain homogenates (MBH) were prepared from brains collected from mice after dosing. Levels of prodrug, d3-Cr and d3-Crn were quantified in brain and expressed in brain concentration (for macrocycle prodrugs) or AUC (for linear prodrugs) over time. Very few prodrugs were detected in MBH.

[12] = in vitro cleavage assays (Table 3A)

Row | Compound | Chemical Stability PBS % T0 at 2 hours at 37 °C. [1] | Chemical Stability SIF, no enzyme % T0 at 2 hours at 37 °C. [2] | Chemical Stability SGF, no enzyme % T0 at 2 hours at 37 °C. [3] | Prodrug Cleavage rFAAH d3-Crn release [4] | Prodrug Cleavage rFAAH net d3-Cr release [4] | Prodrug Cleavage Human BH d3-Crn release [5] | Prodrug Cleavage Human BH net d3-Cr release [5] | half-life [6] | half-life [7] | half-life at 10 μM [8] | half-life at 10 μM [9] | also measured
1 | [2H]C([2H])([2H])N(CC(=O)[O-])C(=N)NC(=O)CCCCCCCCCCCCC.[Li+] [Compound 7, Lithium 2-(1-trideuteriomethyl-3-tetradecanoylguanidino) Acetate] | 90% | 77% | 63% | 1.7% | 146.0% | 0.8% | 50.8% |  |  |  |  | d3-Cr, Cellular Uptake (ARPE-19 cells): 18.6 nmol/mg protien; d3-Crn, Cellular Uptake (ARPE-19 cells): <0.2 nmol/mg protien; prodrug, Cellular Uptake (ARPE-19 cells): 13.1 nmol/mg protien
2 | [2H]C([2H])([2H])N(CC(=O)[O-])C(=N)NC(=O)CCC/C=C\C/C=C\C/C=C\C/C=C\CCCCC.[Na+] [Compound 22] | 35% | 86% | 30% |  |  |  |  | 130 min | > 180 min | 24 min | 9 min | 
3 | [2H]C([2H])([2H])N1CC(=O)OC(CCCCC)CCCCCC(=O)NC1=N (stereo not drawn) [Compound FF, 5-Imino-4-trideuteriomethyl-13-pentyl-1-oxa-4,6-diazacyclotridecane-2,7-dione] |  |  |  |  |  |  |  |  |  |  |  | Concentration of d3-Cr in CrT KO mice brain [10]: BLOQ
4 | Cl.[2H]C([2H])([2H])N(CC(=O)OC(C)C)C(=N)NC(=O)CCCCCCCCCCCC [Compound 10-HCl] | 11% | 46% | 83% | 217.0% | 1.2% | 251.5% | 4.3% |  |  |  |  | d3-Cr release in vitro (in words) [5, 12]: small amount of d3-Cr; d3-Crn (creatinine) cyclization in vitro (in words) [5, 12]: predominantly cyclized into creatinine; also recorded: predominantly creatinine cyclization; d3-Cr/d3-Crn release ratio in vivo (in words) ([11]; brain, CrT KO mice): favorable d3-Cr/d3-Crn ratio
5 | [2H]C([2H])([2H])N(CC(=O)[O-])C(=N)NC(=O)CCCCC/C=C\CCCCCCCCCC.[Li+] [Compound 24] | 150% | 74% | 39% |  |  |  |  | > 180 min | > 180 min | 78 min | 82 min | 
6 | [2H]C([2H])([2H])N(CC(=O)[O-])C(=N)NC(=O)CCCCCCCCCC.[Na+] [Compound 4] | 69% | 61% | 94% |  |  |  |  |  |  |  |  | crossing of BBB (in words) ([11]; CrT KO mice, IV dosing): did not seem to cross BBB; AUClast d3-Cr in the brain ([11]; IV 10 mg/kg, CrT KO mouse brain, BQL d3-Cr = 13.7 ng/mL): BQL; AUClast d3-Crn in the brain ([11]; IV 10 mg/kg, CrT KO mouse brain, BQL d3-Crn = 1.5 ng/mL): BQL; AUClast prodrug in the brain ([11]; IV 10 mg/kg, CrT KO mouse brain, BQL prodrug = 41.2 ng/mL): BQL
